Source: patent US20190112580A1, “METHODS FOR TREATING CO[…] AND RELATED CULTURED CELLS” (priority 2017, published 2019)

Experiments:
[1] = test system: satellite cell-derived myoblasts
Description: Myoblasts were grown in the high-serum medium until reaching a 60-70% confluence by visual inspection in 12-well plate culture dishes.
In a first set of wells, the myoblast cell preparations were placed in a high-serum medium until about 70% confluence was reached. […] These myoblast cell preparations were then switched to a low-serum medium (as described in Example 1) for four days to promote fusion and myotube formation.
In a second set of wells, the myoblast cell preparations were placed in a high-serum medium until about 70% confluence was reached. Then, the myoblast cell preparations were exposed to 5 μM of 5-azacytidine in the high-serum medium for 6 hours. These myoblast cell preparations were finally switched to a low-serum medium (as described in Example 1) for 4 days to promote fusion and myotube formation.
In a third set of wells, the myoblast cell preparations were placed in a high-serum medium until about 70% confluence was reached. These myoblast cell preparations were then exposed to 5 μM of 5-azacytidine in the high-serum medium for 24 hours. These myoblast cell preparations were finally switched to a low-serum medium (as described in Example 1) for 4 days to promote fusion and myotube formation.
In a fourth set of wells, the myoblast cell preparations were placed in a high-serum medium until about 70% confluence was reached.
In a fifth set of wells, the myoblast cell preparations were placed in a high-serum medium until about 70% confluence was reached. […] These same myoblast cell preparations were finally switched to a low-serum medium for 4 days to promote fusion and myotube formation.
FIG. 5, from left to right, depicts 5 columns with 5 different assays on myotube preparations differentiated from the myoblast cell preparations in the 12-well dishes. […] The second column reflects myotubes differentiated from a myoblast cell preparation from the second set of wells, which was exposed to 5 μM of 5-AZA in high serum medium for 6 hours. The third column reflects myotubes differentiated from a myoblast cell preparation from the third set of wells, which was exposed to 5 μM of 5-AZA in high serum medium for 24 hours. […] The immunostainings on the top row of FIG. 5 identifies lipid membranes (green color, WGA), nuclei (blue color, DAPI) and myotubes (red color, ACTA2). The gray-scale panels (middle row) show staining for nuclei only (DAPI). The gray-scale panels in the bottom row show staining for muscle fibers only (ACTA2).
Briefly, satellite cells were isolated from muscle biopsies obtained from TD children during surgical procedures, sorted using FACS, plated in gelatin coated dishes, and grown into proliferation medium in 12-well plates.

[2] = target: Aurora C kinase (Homo sapiens, UniProt Q9UQB9); settings: cited from earlier work
[3] = test system: porcine satellite cells; settings: 10 μM for 48 hours (Fan et al.); cited from earlier work
[4] = test system: C2C12 myoblasts; settings: mouse-derived C2C12 muscle cell lines; cited from earlier work

Aurora C kinase, sequence (Q9UQB9 whole entry): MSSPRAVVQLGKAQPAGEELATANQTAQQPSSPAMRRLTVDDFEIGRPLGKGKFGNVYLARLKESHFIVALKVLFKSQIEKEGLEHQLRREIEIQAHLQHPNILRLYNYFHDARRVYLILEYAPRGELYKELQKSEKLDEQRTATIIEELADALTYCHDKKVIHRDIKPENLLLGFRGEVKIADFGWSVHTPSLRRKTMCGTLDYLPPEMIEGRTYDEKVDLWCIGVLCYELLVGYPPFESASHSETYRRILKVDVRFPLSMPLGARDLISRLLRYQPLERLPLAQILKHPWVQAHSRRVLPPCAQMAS

SMILES | myoblast fusion and myotube formation ([1]; CP and TD myoblasts, FIG. 5 and FIG. 6, 5 μM) | cell death and polyploidy (nuclei) ([1]; CP myoblasts, FIG. 5, 5 μM) | morphological changes to the membranes of the cells (WGA staining) ([1]; CP myoblasts, FIG. 5, 5 μM, 3 days) | morphological changes to ACTA2-negative cells and nuclei ([1]; TD myoblasts, FIG. 6, 5 μM) | cell death over time ([1]; myoblasts) | de-differentiation of myoblasts ([1]; myoblasts) | IC50 [2] [nM] | cell viability [3] | myogenic response [3] | muscle-specific gene expression, myogenesis and myotube formation [4]
c1nc2nc(Nc3ccc(N4CCOCC4)cc3)nc(NC3CCCCC3)c2[nH]1 [Reversine, 2-(4-morpholinoanilino)-6-cyclohexylaminopurine] | shown to promote myoblast fusion and myotube formation | lower in number and suffer from polyploidy | causes morphological changes to the membranes of the cells | led to significant morphological changes to ACTA2-negative cells and nuclei in general | over time also leads to cell death | causes myoblasts to de-differentiate | 20 | – | – | –
Nc1ncn([C@H]2C[C@H](O)[C@@H](CO)O2)c(=O)n1 [decitabine, 5-aza-2′-deoxycytidine] | – | – | – | – | – | – | – | no change in cell viability | positive myogenic response | promoted expression of muscle-specific genes, enhanced myogenesis and myotube formation
